Test results taken from ChEMBL document CHEMBL1909046, “DrugMatrix in vitro pharmacology data”.

How the values were obtained:
Melanocortin receptor 5 = Melanocortin receptor 5 (Homo sapiens, UniProt P33032); assay type: cell membranes, HEK293, Membrane; details: hek293; further: in other assays of this panel Not Active means under 50% inhibition at 10 µM
[1] = biological target: T1, C-X-C chemokine receptor type 2 (Homo sapiens, UniProt P25025); assay type: cell membranes, Membrane; details: cho-k1; further: in other assays of this panel Not Active means under 50% inhibition at 10 µM
T1 sequence (P25025 whole entry): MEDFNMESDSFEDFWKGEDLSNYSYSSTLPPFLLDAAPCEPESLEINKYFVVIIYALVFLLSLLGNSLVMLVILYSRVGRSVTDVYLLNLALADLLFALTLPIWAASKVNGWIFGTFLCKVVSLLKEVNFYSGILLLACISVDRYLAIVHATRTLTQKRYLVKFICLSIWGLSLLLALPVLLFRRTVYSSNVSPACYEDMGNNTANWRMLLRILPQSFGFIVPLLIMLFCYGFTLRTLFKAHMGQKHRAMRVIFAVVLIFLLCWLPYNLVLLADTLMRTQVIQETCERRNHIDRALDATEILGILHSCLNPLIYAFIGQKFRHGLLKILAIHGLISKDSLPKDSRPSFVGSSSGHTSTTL

[2] = biological target: T2, Cysteinyl leukotriene receptor 1 (Homo sapiens, UniProt Q9Y271); assay type: cell membranes, Membrane; details: cho-k1; further: in other assays of this panel Not Active means under 50% inhibition at 10 µM
T2 sequence (Q9Y271 whole entry): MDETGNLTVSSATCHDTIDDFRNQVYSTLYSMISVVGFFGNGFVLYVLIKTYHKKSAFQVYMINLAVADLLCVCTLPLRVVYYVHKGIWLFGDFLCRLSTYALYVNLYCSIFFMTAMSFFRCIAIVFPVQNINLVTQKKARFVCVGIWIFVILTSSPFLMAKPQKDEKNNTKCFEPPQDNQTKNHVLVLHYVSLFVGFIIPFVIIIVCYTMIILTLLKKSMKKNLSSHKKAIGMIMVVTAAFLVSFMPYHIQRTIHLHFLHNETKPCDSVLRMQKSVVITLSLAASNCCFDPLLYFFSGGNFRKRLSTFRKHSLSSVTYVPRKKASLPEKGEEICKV

Nitric oxide synthase 1 = Nitric oxide synthase 1 (Rattus norvegicus, UniProt P29476); assay type: tissue-based, Cerebellum; further: in other assays of this panel Not Active means under 50% inhibition at 10 µM
[3] = biological target: Beta-3 adrenergic receptor (Homo sapiens, UniProt P13945); assay: DRUGMATRIX: Adrenergic beta3 radioligand binding (ligand: [125I] Cyanopindolol); assay type: cell membranes, HEK293, Membrane; details: hek293; Not Active = under 50% inhibition at 10 µM

Measured: IC50

Sequence of Melanocortin receptor 5 (P33032 whole entry): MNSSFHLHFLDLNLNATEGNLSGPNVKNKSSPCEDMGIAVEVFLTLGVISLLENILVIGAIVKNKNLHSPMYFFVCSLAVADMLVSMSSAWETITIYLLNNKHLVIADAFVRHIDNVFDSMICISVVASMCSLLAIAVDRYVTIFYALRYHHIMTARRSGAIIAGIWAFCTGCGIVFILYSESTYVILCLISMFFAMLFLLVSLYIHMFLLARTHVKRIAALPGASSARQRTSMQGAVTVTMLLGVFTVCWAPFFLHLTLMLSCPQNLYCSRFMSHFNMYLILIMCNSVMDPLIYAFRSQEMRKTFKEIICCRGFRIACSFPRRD
Sequence of Beta-3 adrenergic receptor (P13945 whole entry): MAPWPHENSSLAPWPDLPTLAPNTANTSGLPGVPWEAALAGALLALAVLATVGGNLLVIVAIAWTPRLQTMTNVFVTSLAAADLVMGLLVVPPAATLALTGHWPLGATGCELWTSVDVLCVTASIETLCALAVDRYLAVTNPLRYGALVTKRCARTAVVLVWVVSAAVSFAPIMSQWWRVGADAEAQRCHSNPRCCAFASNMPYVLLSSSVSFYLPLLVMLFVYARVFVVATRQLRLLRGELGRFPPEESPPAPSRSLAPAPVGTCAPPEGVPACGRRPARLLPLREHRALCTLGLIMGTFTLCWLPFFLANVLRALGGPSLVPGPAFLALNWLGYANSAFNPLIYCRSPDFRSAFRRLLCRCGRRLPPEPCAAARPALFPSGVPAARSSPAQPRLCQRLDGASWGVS
Sequence of Nitric oxide synthase 1 (P29476 whole entry): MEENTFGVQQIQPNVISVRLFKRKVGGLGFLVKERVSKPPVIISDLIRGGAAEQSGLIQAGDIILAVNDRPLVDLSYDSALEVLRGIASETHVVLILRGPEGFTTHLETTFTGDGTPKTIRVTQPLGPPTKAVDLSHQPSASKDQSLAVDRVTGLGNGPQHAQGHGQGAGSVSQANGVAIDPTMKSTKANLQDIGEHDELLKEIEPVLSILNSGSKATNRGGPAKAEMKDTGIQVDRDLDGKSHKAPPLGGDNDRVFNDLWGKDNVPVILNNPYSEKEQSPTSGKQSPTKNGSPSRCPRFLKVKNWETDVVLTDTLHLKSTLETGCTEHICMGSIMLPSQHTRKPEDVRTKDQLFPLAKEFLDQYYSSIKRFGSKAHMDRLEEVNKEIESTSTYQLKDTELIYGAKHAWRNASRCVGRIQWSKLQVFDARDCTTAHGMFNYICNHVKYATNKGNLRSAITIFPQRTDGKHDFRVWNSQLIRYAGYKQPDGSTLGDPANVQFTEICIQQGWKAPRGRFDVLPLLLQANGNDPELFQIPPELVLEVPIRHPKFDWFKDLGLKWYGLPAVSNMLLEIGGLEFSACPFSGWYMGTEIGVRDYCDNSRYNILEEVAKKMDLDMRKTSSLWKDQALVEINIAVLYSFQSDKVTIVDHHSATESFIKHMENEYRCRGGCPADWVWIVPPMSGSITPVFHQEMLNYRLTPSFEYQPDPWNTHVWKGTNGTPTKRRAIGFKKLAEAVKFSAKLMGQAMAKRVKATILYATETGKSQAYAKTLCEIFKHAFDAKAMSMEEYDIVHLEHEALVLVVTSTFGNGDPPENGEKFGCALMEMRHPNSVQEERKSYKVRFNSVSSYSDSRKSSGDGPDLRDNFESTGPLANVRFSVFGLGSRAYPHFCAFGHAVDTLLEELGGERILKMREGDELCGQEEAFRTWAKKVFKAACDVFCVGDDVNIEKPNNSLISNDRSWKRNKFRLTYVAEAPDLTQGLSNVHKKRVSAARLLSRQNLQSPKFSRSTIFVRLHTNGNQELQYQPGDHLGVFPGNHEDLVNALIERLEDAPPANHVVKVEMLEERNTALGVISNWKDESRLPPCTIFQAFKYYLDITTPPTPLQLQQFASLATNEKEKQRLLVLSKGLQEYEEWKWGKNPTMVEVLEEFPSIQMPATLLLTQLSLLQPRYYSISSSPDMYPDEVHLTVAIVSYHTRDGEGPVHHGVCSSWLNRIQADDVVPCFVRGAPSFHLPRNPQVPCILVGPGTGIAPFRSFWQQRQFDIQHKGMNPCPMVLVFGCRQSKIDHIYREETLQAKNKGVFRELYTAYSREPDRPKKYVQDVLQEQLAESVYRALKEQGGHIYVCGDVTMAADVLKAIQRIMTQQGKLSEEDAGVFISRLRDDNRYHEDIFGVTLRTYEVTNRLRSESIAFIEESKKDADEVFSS

C[C@@H](CO)NC(=O)[C@@H]1C=C2c3cccc4[nH]cc(c34)C[C@H]2N(C)C1 [ERGONOVINE]
Not Active: all assays above

COC(=O)CCc1ccc(OCC(O)CNC(C)C)cc1 (stereo not given) [ESMOLOL]
Not Active: all assays above

CCC1(C)CC(=O)NC1=O (stereo not given) [ETHOSUXIMIDE]
Not Active: all assays above

C#C[C@]1(OC(C)=O)CC[C@H]2[C@@H]3CCC4=C[C@@H](OC(C)=O)CC[C@@H]4[C@H]3CC[C@@]21C [ETHYNODIOL DIACETATE]
Not Active: all assays above

COc1cc([C@@H]2c3cc4c(cc3[C@@H](O[C@@H]3O[C@@H]5CO[C@@H](C)O[C@H]5[C@H](O)[C@H]3O)[C@H]3COC(=O)[C@H]23)OCO4)cc(OC)c1O [ETOPOSIDE]
Not Active: all assays above

C=CCc1ccc(O)c(OC)c1 [EUGENOL]
Not Active: all assays above

CC(C(=O)O)c1cccc(Oc2ccccc2)c1 (stereo not given) [FENOPROFEN]
Not Active: all assays above

CC(C)(C)NC(=O)[C@H]1CC[C@H]2[C@@H]3CC[C@H]4NC(=O)C=C[C@]4(C)[C@H]3CC[C@]12C [FINASTERIDE]
Not Active: all assays above

COc1ccc2c3c1O[C@H]1C[C@@H](O)C=C[C@@]31CCN(C)C2 [GALANTAMINE]
Not Active: all assays above

Nc1ccn([C@@H]2O[C@H](CO)[C@@H](O)C2(F)F)c(=O)n1 [GEMCITABINE]
Not Active: all assays above

CC(C)=CCC/C(C)=C/CO [GERANIOL]
Not Active: all assays above

N=C(N)NC(=O)Cc1c(Cl)cccc1Cl [GUANFACINE]
Not Active: all assays above

Oc1c(Cl)cc(Cl)c(Cl)c1Cc1c(O)c(Cl)cc(Cl)c1Cl [HEXACHLOROPHENE]
Not Active: all assays above

NNc1nncc2ccccc12 [HYDRALAZINE]
Not Active: all assays above

CC(=O)[C@@]1(O)CC[C@H]2[C@@H]3CCC4=CC(=O)CC[C@]4(C)[C@H]3CC[C@@]21C [HYDROXYPROGESTERONE]
Not Active: all assays above

COC1=C(OC)C(=O)C(CCCCCCCCCCO)=C(C)C1=O [IDEBENONE]
Not Active: all assays above

CC(C)NNC(=O)c1ccncc1 [IPRONIAZID]
Not Active: all assays above

Cc1c(OCC(F)(F)F)ccnc1C[S+]([O-])c1nc2ccccc2[nH]1 (stereo not given) [LANSOPRAZOLE]
Not Active: all assays above

O=c1cc(N2CCOCC2)oc2c(-c3ccccc3)cccc12 [LY-294002]
Not Active: all assays above
